Measured values published in patent US20080176909A1, “Methods for prevention and treatment of arteriosclerosis, hypertension and restenosis” (DAIICHI SANKYO COMPANY, LIMITED, priority 2003, published 2008).

Columns and labels:
[1] = test system: cuff-induced vascular damage model of wild-type mice (femoral artery); test: Cuff-induced vascular injury model: DNA synthesis (BrdU index) and neointima formation; assay type: in vivo; details: for effects on blood pressure: azelnidipine 0.1 to 1.0 mg/kg/day, olmesartan 0.5 to 3.0 mg/kg/day
Method: C57BL/6 mice aged 10 weeks were used. In a part of this study, AT1a receptor gene knock out (AT1aKO) mice were also used. Inflammatory vascular damage was induced in mice by loosely placing a polyethylene tube which was cut longitudinally to open the tube, around the femoral artery of mice. In the damaged artery, the following observations were determined. The usefulness of this model of vascular damage to analyze vascular remodeling has been previously reported (Physiol. Genomics., 2, pp. 13-30, 2000; Circulation, 104, pp. 2716-2721, 2001; Circulation, 106, pp. 847-853, 2002).
A paraffin-embedded section of the damaged artery was prepared 14 days after cuff placement, Elastica van Gieson staining was carried out, and the cross-sectional area of the neointima and tunica media of the blood vessels was determined by image analysis software. For quantification of DNA synthesis, bromodeoxyuridine (BrdU) was injected into the mice 7 days after cuff placement and BrdU index calculated from incorporation into the nuclei of the cells was calculated.
(§1) (3) Olmesartan, an AT1 receptor blocker, was intraperitoneally injected into wild-type mice by an osmotic minipump, and the dose-dependency of olmesartan was investigated as described in (2). Oral administration of azelnidipine to the wild-type mice was started after cuff placement, and dose-dependency of azelnidipine was investigated as described in (2). (4) Both olmesartan and azelnidipine were simultaneously administered to wild-type mice, and the effects of co-administration of olmesartan and azelnidipine were compared with those of administration of either olmesartan or azelnidipine alone as described in (2). Effects of olmesartan and azelnidipine were investigated at effective doses of either olmesartan or azelnidipine alone and at insufficient doses to elicit significant effects by either olmesartan or azelnidipine alone, so as to determine synergistic effects of these two agents. (5) By using cultured rat vascular smooth muscle cells, the effects of co-treatment of olmesartan and azelnidipine on facilitation of DNA synthesis following stimulation by angiotensin II (determined by incorporation of [^3H]thymidine) were investigated.

[2] = test system: cultured rat vascular smooth muscle cells; test: DNA synthesis ([3H]thymidine incorporation) following stimulation by angiotensin II; assay type: cell-based; details: for DNA synthesis of cultured rat vascular smooth muscle cells: low doses, alone or co-administered
From the text: as §1

[3] = test system: apolipoprotein E (ApoE) knock out mice; test: Antihypertensive effects, systolic blood pressure on high fatty diet; assay type: in vivo; details: for Systolic blood pressures: 3 mg/kg of each agent oral for 24 weeks, measured 21 to 24 hours after administration in the 23rd week, mean±S.E.; for hypotensive effects: 3 mg/kg of each agent, Dunnett's multiple comparison test
Method: Male apolipoprotein E (ApoE) knock out mice aged 12 weeks were divided into 4 groups (15 mice per group) as following: control group (0.5% carboxymethylcellulose (CMC) solution administered group), olmesartan medoxomil (3 mg/kg) administered group, azelnidipine (3 mg/kg) administered group, and olmesartan medoxomil (3 mg/kg) plus azelnidipine (3 mg/kg) administered group. Either test substance or vehicle (0.5% CMC solution) was orally administered to animals for 24 successive weeks. A high fatty diet (containing 0.15% cholesterol and 15% unsalted butter) was given to all mice in all groups following the start of test agent administration (12 weeks of age). The systolic blood pressure of all mice was measured by a non-preheating type blood pressure monitor (BP MONITOR FOR RATS & MICE, Model MK-2000, Muromachi Kikai Co., Ltd.) at 21 to 24 hours after drug administration in the 23rd week. The results are shown in Table 3 (values in the table indicate mean±S.E.).

[4] = low doses: 0.1 mg/kg/day azelnidipine, 0.5 mg/kg/day olmesartan, alone or at the same time

Row | Structure (SMILES) | effects on blood pressure [1] | increase in DNA synthesis of vascular smooth muscle cells (BrdU index) [1, 4] | potentiation of neointima formation in the blood vessels [1, 4] | DNA synthesis of cultured rat vascular smooth muscle cells [2] | Systolic blood pressures [3] | hypotensive effects [3] | increase in DNA synthesis of vascular smooth muscle cells (BrdU index) ([1]; dose range: azelnidipine 0.1 to 1.0 mg/kg/day oral, olmesartan 0.5 to 3.0 mg/kg/day intraperitoneal osmotic minipump, 7 days after cuff placement) | potentiation of neointima formation in the blood vessels ([1]; dose range: azelnidipine 0.1 to 1.0 mg/kg/day oral, olmesartan 0.5 to 3.0 mg/kg/day intraperitoneal osmotic minipump, 14 days after cuff placement) | facilitation of DNA synthesis following stimulation by angiotensin II ([2]; concentration dependence, [3H]thymidine incorporation)
1 | CCCc1nc(C(C)(C)O)c(C(=O)OCc2oc(=O)oc2C)n1Cc1ccc(-c2ccccc2-c2nnn[nH]2)cc1 [Olmesartan medoxomil, (5-methyl-2-oxo-1,3-dioxolen-4-yl)methyl 4-(1-hydroxy-1-methylethyl)-2-propyl-1-[[2′-(1H-tetrazol-5-yl)biphenyl-4-yl]methyl]imidazol-5-carboxylate] | without any effects on blood pressure | did not elicit any significant effects | did not elicit any significant effects | insufficient to elicit any effects alone | 121 ± 4 mmHg | did not elicit any significant effects |  |  | 
2 | CC1=C(C(=O)OC(C)C)C(c2cccc([N+](=O)[O-])c2)C(C(=O)OC2CN(C(c3ccccc3)c3ccccc3)C2)=C(N)N1 (racemic) [Azelnidipine, (±)-2-amino-1,4-dihydro-6-methyl-4-(3-nitrophenyl)-3,5-pyridine-dicarboxylate-3-(1-diphenylmethylazetidin-3-yl)ester 5-isopropylester] | without any effects on blood pressure | did not elicit any significant effects | did not elicit any significant effects | insufficient to elicit any effects alone | 127 ± 4 mmHg | did not elicit any significant effects | inhibited by azelnidipine in a dose-dependent manner | inhibited by azelnidipine in a dose-dependent manner | suppressed by administration of azelnidipine in a concentration-dependent manner
